Values quoted from earlier work in US20140329770A1, “Compositions Comprising Phytoestrogens Receptor Beta Agonists and Dietary Fibers for Chemopreventive Treatment of Sporadic Adenomatous Polyposis” (CM&D PHARMA LIMITED, priority 2011, published 2014).

Legend:
rectal ACF = details: 6-months intervention, subjects at increased risk for CRC

CC(C)c1c(C(=O)Nc2ccccc2)c(-c2ccccc2)c(-c2ccc(F)cc2)n1CC[C@@H](O)C[C@@H](O)CC(=O)O [atovarstastin]
Reduction in rectal ACF numbers compared with maltodextrins (rectal ACF): did not demonstrate significant reductions

COc1cc(C2Oc3cc([C@H]4Oc5cc(O)cc(O)c5C(=O)[C@@H]4O)ccc3OC2CO)ccc1O (stereo partly shown) [silybinin]
Tumor growth of human SW480 CRC (human SW480 CRC; feeding, nu/nu mice): suppressed | Toxicity (human SW480 CRC; mouse, in vivo): Without any apparent toxicity

CC1=C(CC(=O)O)c2cc(F)ccc2/C1=C\c1ccc([S+](C)[O-])cc1 (stereo not shown) [sulindac]
Reduction in rectal ACF numbers compared with maltodextrins (rectal ACF): did not demonstrate significant reductions
